Consider one compound from article PMC4310350 (Drug Design, Development and Therapy, 2015).

“Also recorded” adds a separate entry of the source. Like-named read-outs stand apart in the source and are kept apart here.

Data set [1] has as its target T1, P-gp (Homo sapiens, UniProt P08183). The data set can be described thus: A-to-B and B-to-A transport in LLC-PK1 cells overexpressing P-gp. It is filed as in vitro ADME. Particulars: P-gp (MDR1), efflux.
Data set [2] deals with T1, P-gp. The data set can be described thus: Inhibitory effect of catalposide on P-gp transport activity. The data set is classed as in vitro ADME. Particulars: probe 0.1 μM [3H]digoxin, catalposide 1–100 μM.
The target in data set [3] is T2, BCRP (Homo sapiens, UniProt Q9UNQ0).
T2 sequence (Q9UNQ0 1-655): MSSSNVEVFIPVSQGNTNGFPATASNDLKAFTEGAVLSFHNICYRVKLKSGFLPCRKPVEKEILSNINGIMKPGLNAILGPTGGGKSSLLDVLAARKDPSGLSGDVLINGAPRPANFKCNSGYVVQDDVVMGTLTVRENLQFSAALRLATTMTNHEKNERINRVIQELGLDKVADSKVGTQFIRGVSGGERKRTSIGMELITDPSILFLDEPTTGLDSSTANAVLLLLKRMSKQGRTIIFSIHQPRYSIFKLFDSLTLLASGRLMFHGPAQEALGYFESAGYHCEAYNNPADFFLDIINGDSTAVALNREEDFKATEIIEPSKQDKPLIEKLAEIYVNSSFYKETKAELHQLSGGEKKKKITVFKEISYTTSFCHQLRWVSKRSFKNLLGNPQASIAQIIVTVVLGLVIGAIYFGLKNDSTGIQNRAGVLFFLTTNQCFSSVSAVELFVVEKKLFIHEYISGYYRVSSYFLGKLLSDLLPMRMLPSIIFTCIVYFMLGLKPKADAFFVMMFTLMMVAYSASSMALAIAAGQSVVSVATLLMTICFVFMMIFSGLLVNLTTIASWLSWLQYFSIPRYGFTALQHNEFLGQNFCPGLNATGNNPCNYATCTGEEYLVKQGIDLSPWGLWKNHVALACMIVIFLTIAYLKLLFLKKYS
The data set can be described thus: Inhibitory effect of catalposide on BCRP transport activity. It is filed as in vitro ADME. Particulars: probe 0.1 μM [3H]ES, catalposide 1–100 μM.

For data set [4] the following is noted: human liver microsomes in the presence of NADPH; cited from earlier work. A general note: Liver microsomes are a subcellular fraction often used to study metabolism.
Data set [5] concerns the target T3, OATP1B3 (Homo sapiens, UniProt Q9NPD5).
T3 sequence (Q9NPD5 1-702): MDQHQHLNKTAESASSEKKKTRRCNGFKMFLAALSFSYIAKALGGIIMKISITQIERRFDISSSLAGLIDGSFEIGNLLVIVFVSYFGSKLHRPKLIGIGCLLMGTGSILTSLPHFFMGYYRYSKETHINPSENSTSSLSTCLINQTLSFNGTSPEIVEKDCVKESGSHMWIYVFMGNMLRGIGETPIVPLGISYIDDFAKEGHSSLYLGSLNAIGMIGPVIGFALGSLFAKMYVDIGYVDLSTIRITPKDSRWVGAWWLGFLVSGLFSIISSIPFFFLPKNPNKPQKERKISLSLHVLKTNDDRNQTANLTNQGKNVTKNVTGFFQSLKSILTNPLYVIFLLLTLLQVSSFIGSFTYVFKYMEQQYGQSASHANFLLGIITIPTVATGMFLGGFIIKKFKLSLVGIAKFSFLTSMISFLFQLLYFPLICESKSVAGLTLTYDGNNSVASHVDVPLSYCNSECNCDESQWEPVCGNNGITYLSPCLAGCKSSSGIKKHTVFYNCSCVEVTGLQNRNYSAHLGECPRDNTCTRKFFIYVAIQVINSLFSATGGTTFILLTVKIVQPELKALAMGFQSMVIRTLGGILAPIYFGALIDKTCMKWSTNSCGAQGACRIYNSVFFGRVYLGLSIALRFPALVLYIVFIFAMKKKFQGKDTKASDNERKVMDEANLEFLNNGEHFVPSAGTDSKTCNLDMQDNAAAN
The data set is described as follows: Uptake in HEK293 cells overexpressing OATP1B3. The data set is classed as in vitro ADME. Particulars: OATP1B3-mediated uptake.

The conditions of data set [6]: rat liver microsomes in the presence of NADPH; cited from earlier work.
The target of data set [7] is T4, OAT1 (Homo sapiens, UniProt Q4U2R8).
T4 sequence (Q4U2R8 1-563): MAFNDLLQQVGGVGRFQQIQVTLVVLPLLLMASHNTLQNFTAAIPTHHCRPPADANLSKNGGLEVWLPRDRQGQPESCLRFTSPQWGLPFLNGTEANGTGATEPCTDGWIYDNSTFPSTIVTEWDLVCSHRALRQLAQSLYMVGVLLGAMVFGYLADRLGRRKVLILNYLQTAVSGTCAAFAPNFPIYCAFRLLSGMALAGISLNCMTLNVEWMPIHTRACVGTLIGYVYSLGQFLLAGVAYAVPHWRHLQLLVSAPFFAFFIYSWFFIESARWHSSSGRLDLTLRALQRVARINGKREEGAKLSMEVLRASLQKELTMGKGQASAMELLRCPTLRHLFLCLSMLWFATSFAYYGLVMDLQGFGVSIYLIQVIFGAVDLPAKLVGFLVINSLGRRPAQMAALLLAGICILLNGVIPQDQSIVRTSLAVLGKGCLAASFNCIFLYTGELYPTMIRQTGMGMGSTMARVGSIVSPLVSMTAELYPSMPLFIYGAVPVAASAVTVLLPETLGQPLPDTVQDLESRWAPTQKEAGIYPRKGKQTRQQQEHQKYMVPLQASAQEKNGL
The data set is described as follows: Inhibitory effect of catalposide on OAT1 transport activity. The following applies: probe 1 μM PAH, catalposide 0–100 μM. The data set is classed as in vitro ADME.

Data set [8] addresses T5, OATP1B1 (Homo sapiens, UniProt Q9Y6L6).
T5 sequence (Q9Y6L6 1-691): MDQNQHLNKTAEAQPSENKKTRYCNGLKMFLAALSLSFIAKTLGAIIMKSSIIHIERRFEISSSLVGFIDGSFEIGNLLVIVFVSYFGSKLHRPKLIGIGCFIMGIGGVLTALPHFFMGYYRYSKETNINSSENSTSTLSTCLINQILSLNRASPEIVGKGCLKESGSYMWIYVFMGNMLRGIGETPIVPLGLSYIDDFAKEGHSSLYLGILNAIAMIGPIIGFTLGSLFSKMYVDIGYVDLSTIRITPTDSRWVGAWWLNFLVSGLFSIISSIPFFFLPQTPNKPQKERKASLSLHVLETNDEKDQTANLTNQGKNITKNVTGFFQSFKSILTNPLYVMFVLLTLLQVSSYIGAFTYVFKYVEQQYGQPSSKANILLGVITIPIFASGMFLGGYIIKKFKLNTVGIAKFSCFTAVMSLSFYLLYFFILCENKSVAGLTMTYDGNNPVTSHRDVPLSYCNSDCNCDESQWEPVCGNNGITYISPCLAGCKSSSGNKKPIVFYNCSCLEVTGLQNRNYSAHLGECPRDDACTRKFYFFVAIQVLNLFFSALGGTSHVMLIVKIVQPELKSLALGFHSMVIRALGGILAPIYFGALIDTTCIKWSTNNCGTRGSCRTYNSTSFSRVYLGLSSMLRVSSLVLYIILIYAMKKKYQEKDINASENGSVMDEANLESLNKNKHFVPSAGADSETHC
The data set is described as follows: Uptake in HEK293 cells overexpressing OATP1B1. The data set is classed as in vitro ADME. Particulars: OATP1B1-mediated uptake.

T1 sequence (P08183 whole entry): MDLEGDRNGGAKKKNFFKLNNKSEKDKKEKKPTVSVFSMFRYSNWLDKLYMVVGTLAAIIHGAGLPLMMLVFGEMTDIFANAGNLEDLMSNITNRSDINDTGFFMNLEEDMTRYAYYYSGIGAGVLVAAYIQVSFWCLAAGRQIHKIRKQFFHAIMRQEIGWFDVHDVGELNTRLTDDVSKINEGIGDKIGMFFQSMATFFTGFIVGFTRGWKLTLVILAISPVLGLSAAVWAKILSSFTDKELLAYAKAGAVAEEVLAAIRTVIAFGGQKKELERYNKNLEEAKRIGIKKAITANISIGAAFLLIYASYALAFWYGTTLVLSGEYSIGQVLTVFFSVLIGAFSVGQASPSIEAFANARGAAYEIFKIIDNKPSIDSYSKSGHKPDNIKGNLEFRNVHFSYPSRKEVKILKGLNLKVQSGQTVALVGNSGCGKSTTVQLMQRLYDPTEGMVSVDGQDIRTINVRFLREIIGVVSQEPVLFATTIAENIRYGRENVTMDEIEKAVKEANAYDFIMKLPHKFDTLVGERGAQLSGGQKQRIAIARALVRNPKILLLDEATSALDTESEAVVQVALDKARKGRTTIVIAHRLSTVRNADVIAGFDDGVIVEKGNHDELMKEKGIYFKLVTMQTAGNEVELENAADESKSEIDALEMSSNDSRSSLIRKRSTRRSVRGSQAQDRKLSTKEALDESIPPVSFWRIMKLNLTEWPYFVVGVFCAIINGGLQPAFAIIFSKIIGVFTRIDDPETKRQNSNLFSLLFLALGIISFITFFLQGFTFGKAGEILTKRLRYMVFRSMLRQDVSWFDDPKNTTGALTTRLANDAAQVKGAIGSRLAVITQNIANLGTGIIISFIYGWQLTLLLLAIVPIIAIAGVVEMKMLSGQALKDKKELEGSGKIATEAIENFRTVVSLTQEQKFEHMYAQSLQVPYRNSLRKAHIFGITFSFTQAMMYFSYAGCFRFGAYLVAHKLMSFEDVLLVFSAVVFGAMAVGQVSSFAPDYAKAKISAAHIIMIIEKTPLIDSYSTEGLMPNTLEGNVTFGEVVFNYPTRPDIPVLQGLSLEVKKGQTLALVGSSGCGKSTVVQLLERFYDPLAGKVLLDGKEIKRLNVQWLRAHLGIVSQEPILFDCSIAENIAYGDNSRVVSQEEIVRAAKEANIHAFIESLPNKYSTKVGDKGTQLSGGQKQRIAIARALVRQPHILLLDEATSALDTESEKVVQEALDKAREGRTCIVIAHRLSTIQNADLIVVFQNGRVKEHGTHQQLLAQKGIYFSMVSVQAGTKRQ

As to `O=C(O[C@H]1[C@@H]2C=CO[C@@H](O[C@@H]3O[C@H](CO)[C@@H](O)[C@H](O)[C@H]3O)[C@@H]2[C@@]2(CO)O[C@@H]12)c1ccc(O)cc1` [catalposide], the Substrate result in data set [1] was “not involved; also recorded: not a substrate”. In addition, the Inhibitor result in data set [2], in data set [3] and in data set [7] was “did not significantly inhibit” in each case. For the same compound, the Stability result in data set [4] and in data set [6] was “remained stable” each time. Further, the Hill coefficient n in data set [5] and in data set [8] was around 1 each time.
